Data reported in patent publication US20140039031A1, “PHARMACEUTICAL FORMULATIONS OF ACETYL-11-KETO-B-BOSWELLIC ACID, DIINDOLYLMETHANE, AND CURCUMIN FOR PHARMACEUTICAL APPLICATIONS” (Dispersol Technologies. LLC, priority 2011, published 2014).

What was measured:
[1] = Dissolution testing under non-sink conditions (USP XXIX method A enteric dissolution test); format: physicochemical; conditions: pH 6.8 buffer, read from FIG. 6
Protocol: Dissolution tests were performed with a dissolution apparatus (VK 7000 Dissolution Tester with a VK 8000 Autosampler). The testing was carried out according to a published method (USP XXIX method A enteric dissolution test); non-sink conditions were maintained throughout the testing using 1 L of final neutral media. The solution of 0.1N HCl (pH of 1.2) with a formulation present was stirred at 50 rpm for 2 hours and then the solution was converted to 0.2M Phosphate Buffer (pH of 6.8) and stirring continued up to 12 hours. At times of 60, 120, 125, 135, 150, 165, 180, 210, 240, 300, 360, 480, and 720 minutes, three×5 mL samples were removed and analyzed for soluble AKBA.

[2] = Solubility enhancement of AKBA by combination of polymer carriers and surfactants (UV-Visible); format: physicochemical; conditions: pH 6.8 phosphate buffer; 20 mg AKBA in 10 mL; shaken at least 72 hours at 37° C.; 0.45 micron filter
Protocol: Evaluation of Solubility Enhancement Capability of the Combination of Polymer Carriers (Thermal Binders) and Surfactants for Solubilizing AKBA.
20 mg of AKBA was placed in a 10 mL cuvette, followed by the desired amount of polymer carriers and/or surfactants to be studied to give the desired ratio of materials. A pH 6.8 phosphate buffer was added as needed to bring the volume up to 10 mL. […] The resulting material was filtered through a 0.45 micron filter and analyzed by UV-Visible spectroscopy to determine the AKBA content.

[3] = Bioavailability (pharmacokinetic) study of AKBA formulations, oral gavage; format: in vivo, Sprague-Dawley rats; conditions: rat, dose equivalent to 50 mg/kg AKBA, * statistically significant
Protocol: A study was performed to evaluate the pharmacokinetic parameters of AKBA compositions. For the study, adult male Sprague-Dawley rats (275-300 grams, 63-67 days) were caged individually and maintained on a normal rodent chow diet with free access to water. Rats were randomly divided into groups of 4 rats with each group receiving one formulation. Prior to dosing, each formulation was reconstituted in deionised water. The formulations were administered as a dose equivalent to 50 mg/kg AKBA. Each formulation was delivered by 1 mL oral gavage via a pharyngeal tube such that each group of 4 rats received a different formulation. Each formulation was administered to dose AKBA at a concentration of 15 mg/l mL to prevent spontaneous release through the pyloric sphincter (volumetric dose below 4 mL/kg body weight).
The administered formulations were: […]
The catheters of the rats were flushed daily with 300 μL of 50 U/mL heparinized normal saline. Blood samples of approximately 300 μL were collected from the jugular vein catheter at 0, 0.5, 1, 1.5, 2, 2.5, 3, 3.5, 4, 4.5, 5, 5.5, 6 and 8 hours after dosing using a 1 mL syringe and attached […] needle. Blood was slowly extracted into the needle through the catheter. The blood samples were placed into preheparinized 1.5 mL microcentrifuge tubes. Withdrawn blood was replaced with equal volumes of heparinized saline by injecting through the jugular vein catheter. The bioavailability of the API was then determined by monitoring the API levels in the blood over time.

[4] = Solubility enhancement of AKBA by surfactants (UV-Visible); format: physicochemical; conditions: pH 6.8 phosphate buffer; 100 mg AKBA in 10 mL; shaken at least 72 hours at 37° C.; 0.20 micron filter
Protocol: Evaluation of Solubility Enhancement Capability of Surfactants for Solubilizing AKBA.
100 mg of AKBA was placed in a 10 mL cuvette, followed by the desired amount of surfactant to be studied to give the desired ratio of materials. Powder surfactants were measured directly into the cuvette in the amounts of 10 mg, 25 mg and 50 mg. Liquid surfactants were added by making a solution of 1.25 gm of surfactant in 250 ml of buffer, and then adding 2 ml, 5 ml, or 10 ml of the buffer solution to add 10 mg, 25 mg and 50 mg of the surfactant. A pH 6.8 phosphate buffer was added as needed to bring the volume up to 10 mL. After all material was added to the cuvette, the cuvette was sealed, sonicated for 2 hours on two separate occasions and then shaken for at least 72 hours at 37° C. The resulting material was filtered through a 0.20 micron filter and analyzed by UV-Visible spectroscopy to determine the AKBA content.

[5] = Solubility enhancement of AKBA by polymer carriers (thermal binders) (UV-Visible); format: physicochemical; conditions: pH 6.8 phosphate buffer; 20 mg AKBA in 10 mL; shaken at least 72 hours at 37° C.; 0.45 micron filter
Protocol: Evaluation of Solubility Enhancement Capability of Polymer Carriers (Thermal Binders) for Solubilizing AKBA.
20 mg of AKBA was placed in a 10 mL cuvette, followed by the desired amount of polymer carriers to be studied to give the desired ratio of materials. A pH 6.8 phosphate buffer was added as needed to bring the volume up to 10 mL. After all material was added to the cuvette, the cuvette was sealed, sonicated for 2 hours on two separate occasions and then shaken for at least 72 hours at 37° C. The resulting material was filtered through a 0.45 micron filter and analyzed by UV-Visible spectroscopy to determine the AKBA content.

CC(=O)O[C@@H]1CC[C@@]2(C)[C@@H](CC[C@]3(C)[C@@H]2C(=O)C=C2[C@@H]4[C@@H](C)[C@H](C)CC[C@]4(C)CC[C@]23C)[C@@]1(C)C(=O)O [AKBA, acetyl-11-keto-β-boswellic acid]
peak solubility [1]: about 2 μg/ml | AKBA solubility, mcg/mL Buffer (Material - Combination of Surfactants and Polymer Carriers) [2]: 8.46 µg/mL | Average of AUC [3]: 0.71* ± 0.24 μg-hr/mL | Average of Cmax [3]: 0.35* ± 0.12 μg/mL | Average of Tmax [3]: 4.75* ± 1.55 hours | Average of t1/2 [3]: 2.30 ± 1.43 h | AKBA solubility, mcg/mL Buffer (Material - Surfactants) [4]: 0.01 µg/mL | AKBA solubility, mcg/mL Buffer (Material - Polymer Carriers) [5]: 7.27 µg/mL
